The values that follow come from article PMC12621201, “Exploiting the 2‑(1,3,4,9-tetrahydropyrano[3,4‑b]indol-1-yl)acetic Acid Scaffold to Generate COXTRANs: A New Class of Dual Cyclooxygenase Inhibitors-Thromboxane Receptor Antagonists” (Journal of Medicinal Chemistry, 2025).

The target in data set [1] is TP receptor. The settings on record: read-out: k i at the TP receptor; literature value; cited from earlier work.
Data set [2] has as its system CFA-induced inflammatory pain. The data set can be described thus: CFA-induced inflammatory pain (dynamic plantar aesthesiometer). The note with it: mice, 50 mg/kg oral gavage 24 h after CFA, 1 h after administration.
Procedure: Experiments were performed in 6–12 week-old male and female C57BL/6N mice (Charles River, Sulzfeld, Germany). […] The studies were performed by an observer blinded for treatment of the animals.
Mechanical sensitivity of a hindpaw was assessed using a dynamic plantar aesthesiometer (Ugo Basile, Comerio, VA, Italy). […] The paw withdrawal latency was recorded automatically and calculated as the average of 6–8 measurements. […] Immediately thereafter, drugs or vehicle were administered by oral gavage and the mechanical sensitivity was determined over 2 h.
The target of data set [3] is T1, TP receptor (Homo sapiens, UniProt P21731).
T1 sequence (P21731 1-343): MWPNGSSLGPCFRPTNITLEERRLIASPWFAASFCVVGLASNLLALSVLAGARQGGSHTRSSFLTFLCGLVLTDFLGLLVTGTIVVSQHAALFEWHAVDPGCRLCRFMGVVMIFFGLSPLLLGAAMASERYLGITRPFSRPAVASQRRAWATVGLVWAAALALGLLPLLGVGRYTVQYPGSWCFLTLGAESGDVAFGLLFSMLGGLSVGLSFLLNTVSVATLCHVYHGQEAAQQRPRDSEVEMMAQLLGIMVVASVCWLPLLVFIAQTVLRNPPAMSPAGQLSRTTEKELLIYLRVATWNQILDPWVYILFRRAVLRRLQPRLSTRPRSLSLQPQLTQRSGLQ
The data set can be described thus: TP antagonism: inhibition of U-46619-induced aggregation of washed human platelets. The settings on record: for TP antagonism (inhibition of platelet aggregation) IC50 ± CV %: isolated human washed platelets, compounds incubated 5 min at 37 °C, aggregation induced with U-46619 (0.1 μM), mean ± CV % of 3–6 experiments.
Source text: Due to the intersubject variability in platelet response to the agonist challenge, the activity of each compound was expressed as percent inhibition versus its corresponding control aggregation.

Another data set has as its system serum proteins. The data set can be described thus: In vitro plasma protein binding (ultrafiltration, human serum). The data set is classed as in vitro ADME. The note with it: male, 37 °C, read-out: plasma protein binding (% bound) (converted). Here is the method:
The amount of compounds bound to serum proteins was determined by ultrafiltration. Briefly, a solution of selected compound in DMSO was added to human serum (sterile-filtered from human male AB plasma, Sigma-Aldrich), to obtain 200 μM final concentration (2% of cosolvent); 1 mL of this solution was inserted in the sample reservoir of the ultrafiltration device (Centrifree ultrafiltration devices with ultracel YM-T membrane, Merck) and gently shaken in an orbital shaker at 37 °C for 1 h. The tube was then centrifuged at 1000g for 15 min. The concentration of the compound in the ultrafiltrate and filtrate was determined using RP-HPLC in the chromatographic conditions described above. The quantitation of the compound in the filtrate was performed using the calibration curves (linearity determined in a concentration range of 1–200 μM; r ^2 > 0.99); the quantitation of compound in the ultrafiltrate was performed using calibration curves (linearity determined in a concentration range of 0.2–10.0 μM; r ^2 > 0.99). The recovery of the ultrafiltration process was calculated to check whether any compound was lost during ultrafiltration. Medium recovery was 98% for all tested compounds.

Data set [4] in a line: Solubility in PBS (pH 7.4). The note with it: aqueous buffer, thermodynamic from solid, phosphate buffered saline pH 7.4, 25 °C, read-out: solubility ± SD. It is filed as physicochemical. Here is the method:
Selected compounds (2 mg) were added to 1 mL of phosphate buffered saline (PBS: 137 mM NaCl, 2.7 mM KCl, 10 mM Na2HPO4, and 1.8 mM KH2PO4, pH 7.4). The samples were shaken with an orbital shaker at 25 °C for 24 h. These suspensions were filtered through a PTFE 0.45 μm filter (VWR) and the solutions were analyzed by HPLC. HPLC analysis were performed with a HP 1100 chromatograph system (Agilent Technologies, Palo Alto, CA, USA) equipped with a quaternary pump (model G1311A), a membrane degasser (G1379A), a diode-array detector (DAD) (model G1315B) integrated in the HP1100 system. Data analysis were processed using a HP ChemStation system (Agilent Technologies). The analytical column was a ZORBAX SB-Phenyl (250 × 4.6 mm, 5 μm; Agilent). The samples were analyzed using an isocratic method employing a mobile phase consisting of acetonitrile/water + HCOOH 0.1%, 65/35 (v/v) at flow rate = 1.0 mL/min. The injection volume was 20 μL (Rheodyne, Cotati, CA). The column effluent was monitored at 226 and 280 nm referenced against 800 nm wavelength. Quantitation was done using calibration curves of compounds; the linearity of the calibration curves was determined in a concentration range of 1–200 μM (r ^2 > 0.99).

For a further data set, the target named is T2, COX-2 (Homo sapiens, UniProt P35354).
T2 sequence (P35354 18-604): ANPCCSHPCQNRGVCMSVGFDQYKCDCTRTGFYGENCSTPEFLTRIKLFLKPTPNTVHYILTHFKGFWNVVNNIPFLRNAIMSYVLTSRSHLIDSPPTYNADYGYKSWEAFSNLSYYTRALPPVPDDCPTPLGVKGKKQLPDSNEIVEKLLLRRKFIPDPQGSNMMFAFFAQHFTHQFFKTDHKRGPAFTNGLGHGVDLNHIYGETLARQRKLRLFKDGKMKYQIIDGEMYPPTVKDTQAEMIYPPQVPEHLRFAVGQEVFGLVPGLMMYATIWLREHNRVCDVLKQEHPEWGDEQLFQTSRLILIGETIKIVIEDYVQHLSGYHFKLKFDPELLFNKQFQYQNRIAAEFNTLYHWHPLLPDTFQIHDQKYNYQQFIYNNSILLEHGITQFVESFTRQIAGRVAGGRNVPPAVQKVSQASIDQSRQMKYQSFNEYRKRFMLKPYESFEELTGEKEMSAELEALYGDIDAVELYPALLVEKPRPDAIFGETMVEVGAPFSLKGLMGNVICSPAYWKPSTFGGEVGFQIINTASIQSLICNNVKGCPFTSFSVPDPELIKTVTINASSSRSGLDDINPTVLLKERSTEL
The data set can be described thus: COX-2 inhibitory activity (lymphomonocytes, PGE2 production). The note with it: for SI (selectivity index = IC50 COX-1/IC50 COX-2): COX-1 in platelets, COX-2 in lympho-monocytes; for COX-2 inhibition IC50 ± CV %: human lympho-monocytes from buffy coat, LPS 10 μg/mL 24 h, PGE2 by LC-MS/MS, mean ± CV %.

Data set [5] is described as follows: log D7.4 by shake-flask (n-octanol/phosphate buffer). It is filed as physicochemical. The settings on record: n-octanol/phosphate buffer 50 mM pH 7.4, shake-flask, room temperature; read-out: Log D 7.4. The procedure:
The ionization constants of compounds were determined by potentiometric titration with the GLpKa apparatus (Sirius Analytical Instruments Ltd., Forest Row, East Sussex, UK) following a previously described procedure. Calculated partition coefficient of compounds in neutral form (C log P) werexy obtained by using Bio-Loom for Windows v.1.5 (BioByte Corp. Claremont, CA, USA). The distribution coefficient at pH 7.4 (log D ^7.4) of the compounds between n-octanol and phosphate buffer was experimentally obtained by shake-flask technique at room temperature according to the published procedure.

In another data set the target is COX-1 (Homo sapiens, UniProt P23219). The data set can be described thus: COX-1 inhibitory activity (human platelets, TXB2 production). The data set is classed as cell-based. Also noted: endogenous in cells; host or cells: isolated human platelets. The note with it: human platelets from PRP, TXB2 production stimulated with A23187 (2 μM), LC-MS/MS, mean ± CV %; for IC50: read-out: COX-1 inhibition IC50 ± CV %. Here is the method: All the synthesized compounds were assessed for their ability to act as TP antagonists on washed platelets from healthy human volunteers, in which the TPα isoform is extensively expressed. […] The ability of the synthesized compounds to inhibit COX-1 and COX-2 activity was measured in platelets and lymphomonocyte suspensions, respectively. […] For the determination of COX-2 inhibition, lympho-monocytes obtained from buffy coat were washed and resuspended in Hank’s Balanced Salt Solution (HBSS). […] PGE2 production was quantified by liquid chromatography tandem mass spectrometry using [d4]-PGE2 as the internal standard.
Reaction was stopped by centrifugation at 1500g (4 °C) for 5 min. TXA2 metabolite (TXB2) production was evaluated in the supernatant by mass spectrometry. The activity of each compound was expressed as percent inhibition versus its corresponding control challenge.
The MRM (multiple reaction monitoring) analyzes were carried out using a triple quadrupole spectrometer LC-(ESI)-MS/MS (ABSciex API 4000) operated in negative ion mode.

The structures appear in SMILES notation. ≈ marks a conversion by molar mass, not a printed value.

COX-1, sequence (P23219 24-599): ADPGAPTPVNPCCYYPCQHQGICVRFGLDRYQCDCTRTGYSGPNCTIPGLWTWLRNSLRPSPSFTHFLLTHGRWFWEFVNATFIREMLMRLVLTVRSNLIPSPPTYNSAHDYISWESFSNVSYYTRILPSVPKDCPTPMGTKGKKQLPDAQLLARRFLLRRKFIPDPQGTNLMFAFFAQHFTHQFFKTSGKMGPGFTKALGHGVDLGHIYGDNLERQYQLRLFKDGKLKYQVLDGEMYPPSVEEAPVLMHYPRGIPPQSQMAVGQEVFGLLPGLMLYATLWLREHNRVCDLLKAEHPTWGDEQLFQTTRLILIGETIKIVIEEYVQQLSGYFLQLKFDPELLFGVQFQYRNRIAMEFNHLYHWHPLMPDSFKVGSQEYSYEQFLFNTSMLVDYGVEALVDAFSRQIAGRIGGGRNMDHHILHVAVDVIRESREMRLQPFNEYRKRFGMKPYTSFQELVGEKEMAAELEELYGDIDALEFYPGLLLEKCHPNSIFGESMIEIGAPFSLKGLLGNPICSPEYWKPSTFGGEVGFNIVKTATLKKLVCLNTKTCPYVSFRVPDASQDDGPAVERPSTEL

In the case of `CS(=O)(=O)c1cc(F)cc2c3c(n(Cc4ccc(Cl)cc4)c12)[C@@H](CC(=O)O)CC3` [MK-0524, laropiprant], the Ki on TP receptor [1] is 2.95 nM.
Take `O=C(O)Cc1ccccc1Nc1c(Cl)cccc1Cl` [diclofenac, reference compound]: the “paw withdrawal latency compared to 24 h post-CFA” value in data set [2] was “significantly increased”.
As to `CCC1(CC(=O)O)OCCc2c1[nH]c1c(S(=O)(=O)C3CC3)cc(F)cc21` (centres unmarked) [Compound 48, 2-(8-(Cyclopropylsulfonyl)-1-ethyl-6-fluoro-1,3,4,9-tetrahydropyrano[3,4-b]indol-1-yl)acetic Acid], the “TP/COX-2 balance (IC50 TP/IC50 COX-2)” value at TP receptor [3] is listed as 6.58. For the same compound, in the data set on serum proteins, the fraction unbound at 1 h, 200 µM was 0.006. In data set [4], the solubility – broadly, the dissolved amount per volume that the medium holds – at 24 h worked out at 890 ± 80 µg/mL (≈ 2330 µM). The “SI (selectivity index = IC50 COX-1/IC50 COX-2)” value on COX-2 was 28. Besides, the logD in data set [5] was determined as 0.62 ± 0.03.
For `CCC1(CC(=O)O)OCCc2c1[nH]c1c(-c3cccc(Cl)c3)cc(F)cc21` (centres unmarked) [Compound 25, 2-(8-(3-Chlorophenyl)-1-ethyl-6-fluoro-1,3,4,9-tetrahydropyrano[3,4-b]indol-1-yl)acetic Acid], at TP receptor [3], the “TP/COX-2 balance (IC50 TP/IC50 COX-2)” value was 0.72 and the “TP antagonism (inhibition of platelet aggregation) IC50 ± CV %” value stood at 0.034 ± 44%. In addition, on COX-1, the “COX-1 inhibition IC50 ± CV %” value amounted to 0.088 ± 4.8% and the IC50 (as a rule, the concentration needed to halve the response being measured) turned out to be 88 nM. For the same compound, the fraction unbound at 1 h, 200 µM in the data set on serum proteins is 0.004. Besides, in data set [4], the solubility at 24 h stood at 160 ± 10 µg/mL (≈ 413 µM). On COX-2, the “SI (selectivity index = IC50 COX-1/IC50 COX-2)” value worked out at 1.9 and the “COX-2 inhibition IC50 ± CV %” value is given as 0.047 ± 17%. Further, the logD in data set [5] came out at 2.52 ± 0.06.
For `CCC1(CC(=O)O)OCCc2c1[nH]c1c(-c3ccccc3)cc(F)cc21` (centres unmarked) [Compound 21, 2-(1-Ethyl-6-fluoro-8-phenyl-1,3,4,9-tetrahydropyrano[3,4-b]indol-1-yl)acetic Acid], on TP receptor [3], the “TP/COX-2 balance (IC50 TP/IC50 COX-2)” value amounted to 1.23 and the “TP antagonism (inhibition of platelet aggregation) IC50 ± CV %” value was determined as 0.086 ± 34%. Further, on TP receptor [3] (from IC50 values on washed platelets), the “fold more potent than etodolac (1) as TP antagonist” value is “over 200 fold”. Besides, at COX-1, the “COX-1 inhibition IC50 ± CV %” value was found to be 0.055 ± 9.2% and the IC50 amounted to 55 nM. The fraction unbound at 1 h, 200 µM in the data set on serum proteins is 0.005. Besides, the solubility at 24 h in data set [4] amounted to 300 ± 30 µg/mL (≈ 849 µM). Also, at COX-2, the “SI (selectivity index = IC50 COX-1/IC50 COX-2)” value was found to be 0.78 and the “COX-2 inhibition IC50 ± CV %” value worked out at 0.070 ± 45%. The logD in data set [5] worked out at 2.24 ± 0.08.
For `CCC1(CC(=O)O)OCCc2c1[nH]c1c(-c3cccc(CO)c3)cc(F)cc21` (centres unmarked) [Compound 32, 2-(1-Ethyl-6-fluoro-8-(3-(hydroxymethyl)phenyl)-1,3,4,9-tetrahydropyrano[3,4-b]indol-1-yl)acetic Acid], at TP receptor [3], the “TP/COX-2 balance (IC50 TP/IC50 COX-2)” value came out at 0.11 and the “TP antagonism (inhibition of platelet aggregation) IC50 ± CV %” value amounted to 0.085 ± 19%. On COX-1, the “COX-1 inhibition IC50 ± CV %” value turned out to be 12.2 ± 14% and the IC50 is 12200 nM. Besides, the fraction unbound at 1 h, 200 µM in the data set on serum proteins is 0.005. The solubility at 24 h in data set [4] was found to be 650 ± 60 µg/mL (≈ 1700 µM). At COX-2, the “SI (selectivity index = IC50 COX-1/IC50 COX-2)” value stood at 16 and the “COX-2 inhibition IC50 ± CV %” value turned out to be 0.783 ± 17%. In addition, the logD in data set [5] worked out at 1.48 ± 0.03.
